Laboratory results from patent publication US20260191856A1 (priority 2022, published 2026).
“And” between values parts separate entries of the source, which are not always exact repeats. Identical values can stand only once. “Also recorded” adds a separate entry of the source. Like-named read-outs stand apart in the source and are kept apart here. Marks after values point to notes of the source that are not given here.

How the values were obtained:
MOR [1] = target: T1, MOR (Homo sapiens, UniProt P35372); assay type: cell-based
T1 construct: expressed in transfected cells; host or cells: HEK293T
T1 sequence (P35372 whole entry): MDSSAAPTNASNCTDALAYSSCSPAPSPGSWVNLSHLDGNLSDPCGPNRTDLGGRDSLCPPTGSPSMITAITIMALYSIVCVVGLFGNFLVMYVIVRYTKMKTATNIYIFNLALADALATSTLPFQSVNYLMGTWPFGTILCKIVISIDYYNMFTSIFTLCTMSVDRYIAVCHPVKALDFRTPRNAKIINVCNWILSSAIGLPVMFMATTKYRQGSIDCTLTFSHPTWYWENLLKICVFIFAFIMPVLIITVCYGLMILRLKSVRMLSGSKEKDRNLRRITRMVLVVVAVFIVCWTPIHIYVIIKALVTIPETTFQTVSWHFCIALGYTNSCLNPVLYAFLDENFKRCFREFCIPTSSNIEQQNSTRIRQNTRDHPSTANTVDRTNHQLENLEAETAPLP

MOR [2] = target: T1, MOR; test: TRUPATH subtype selectivity, MOR/DAMGO; assay type: cell-based; conditions: compound A3 up to 30 μM
male C57BL/6J mice [3] = test: Locomotor and respiration effects (CLAMS)
δOR = target: T2, δOR (Homo sapiens, UniProt P41143); test: TRUPATH subtype selectivity, δOR/DPDPE; assay type: cell-based; conditions: compound A3 up to 30 μM
T2 construct: expressed in transfected cells; host or cells: HEK293T (method is written for MOR)
T2 sequence (P41143 whole entry): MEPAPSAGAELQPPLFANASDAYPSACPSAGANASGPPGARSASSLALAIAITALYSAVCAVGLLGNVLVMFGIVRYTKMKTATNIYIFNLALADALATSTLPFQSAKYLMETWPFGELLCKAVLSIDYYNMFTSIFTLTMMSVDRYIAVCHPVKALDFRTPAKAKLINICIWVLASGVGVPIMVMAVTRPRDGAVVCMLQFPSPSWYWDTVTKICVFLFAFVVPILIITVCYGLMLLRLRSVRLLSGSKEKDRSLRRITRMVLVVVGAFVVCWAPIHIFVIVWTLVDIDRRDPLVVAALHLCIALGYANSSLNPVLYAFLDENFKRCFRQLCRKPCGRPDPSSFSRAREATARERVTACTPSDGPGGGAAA

male C57BL/6J mice [4] = test: Naloxone-precipitated opioid withdrawal assay
κOR = target: T3, κOR (Homo sapiens, UniProt P41145); test: TRUPATH subtype selectivity, κOR/U50488; assay type: cell-based; conditions: compound A3 up to 30 μM
T3 construct: expressed in transfected cells; host or cells: HEK293T (method is written for MOR)
T3 sequence (P41145 whole entry): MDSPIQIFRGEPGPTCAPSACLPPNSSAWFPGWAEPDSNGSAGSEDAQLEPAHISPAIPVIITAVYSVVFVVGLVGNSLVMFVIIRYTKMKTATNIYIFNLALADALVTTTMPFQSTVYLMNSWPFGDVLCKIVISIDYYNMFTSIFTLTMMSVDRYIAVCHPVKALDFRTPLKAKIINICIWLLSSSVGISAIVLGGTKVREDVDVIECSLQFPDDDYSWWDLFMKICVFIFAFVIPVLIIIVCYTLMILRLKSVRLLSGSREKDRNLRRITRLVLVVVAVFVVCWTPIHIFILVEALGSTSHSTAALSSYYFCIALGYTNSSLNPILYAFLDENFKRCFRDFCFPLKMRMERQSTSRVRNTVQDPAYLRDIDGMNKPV

[5] = male, C57BL/6J, mouse, in vivo, iv, 10 mg/kg
MOR [6] = target: T4, MOR (Mus musculus, UniProt P42866); assay type: biochemical; design: FLAG (N); hexa-histidine (C); made in house; host or cells: Spodoptera frugiperda (Sf9) for MOR; Trichoplusia ni for Gi
T4 sequence (P42866 whole entry): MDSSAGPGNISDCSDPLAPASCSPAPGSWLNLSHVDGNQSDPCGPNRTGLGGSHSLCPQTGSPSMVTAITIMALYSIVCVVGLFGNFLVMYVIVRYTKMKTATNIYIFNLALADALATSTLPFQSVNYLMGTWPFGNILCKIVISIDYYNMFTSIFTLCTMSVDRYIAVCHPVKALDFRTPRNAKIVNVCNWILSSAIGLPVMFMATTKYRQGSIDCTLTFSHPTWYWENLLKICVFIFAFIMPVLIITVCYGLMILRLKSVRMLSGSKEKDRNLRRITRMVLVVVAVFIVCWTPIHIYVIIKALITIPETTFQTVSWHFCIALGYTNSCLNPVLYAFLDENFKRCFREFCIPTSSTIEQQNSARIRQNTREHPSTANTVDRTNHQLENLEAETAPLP

in vivo = conditions: male, C57BL/6J, mouse, iv, 10 mg/kg
male C57BL/6J mice [7] = conditions: mouse, in vivo
male C57BL/6J mice [8] = test: Conditioned place preference (CPP) assay; assay type: in vivo, mouse
MOR [9] = target: T4, MOR; test: biochemical; assay type: binding; design: made in house; host or cells: Sf9 insect cell membranes (baculovirus)
MOR [10] = target: T1, MOR; assay type: cell-based; remark: listed apart in the source
CB1 [11] = target: T5, CB1 (Homo sapiens, UniProt P21554); test: 3H-SR141716A radioligand binding to CB1-containing membranes; design: made in house; host or cells: insect cell membranes (inferred from 'similar manner' to the Sf9 MOR membranes); conditions: compared with ZCZ
T5 sequence (P21554 whole entry): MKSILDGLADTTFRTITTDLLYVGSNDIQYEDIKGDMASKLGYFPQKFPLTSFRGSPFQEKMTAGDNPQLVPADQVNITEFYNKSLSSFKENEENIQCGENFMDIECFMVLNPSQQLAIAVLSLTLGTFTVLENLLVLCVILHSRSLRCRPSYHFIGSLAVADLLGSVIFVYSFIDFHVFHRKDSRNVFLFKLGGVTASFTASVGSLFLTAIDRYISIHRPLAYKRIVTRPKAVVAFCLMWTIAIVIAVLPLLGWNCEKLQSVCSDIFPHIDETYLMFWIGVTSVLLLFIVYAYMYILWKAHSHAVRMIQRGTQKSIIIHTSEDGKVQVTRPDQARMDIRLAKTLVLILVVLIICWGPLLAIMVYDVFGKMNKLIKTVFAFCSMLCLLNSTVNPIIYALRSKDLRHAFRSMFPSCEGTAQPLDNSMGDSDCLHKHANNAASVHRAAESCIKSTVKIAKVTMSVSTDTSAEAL
Procedure: CB1-containing membranes prepared in a similar manner to the μOR-containing membranes prepared above were diluted 1:2000 in 50 mM HEPES pH 7.4, 5 mM EDTA, 5 mM MgCl2, and 1% bovine serum albumin (BSA). 96-well plates precoated with blocking buffer (20 mM HEPES (pH 7.4), 100 mM NaCl, and 0.05% BSA) were used as reaction plates. For “competition” binding experiments, membranes were incubated with 6 nM ^3H-SR141716a (50.9 Ci/mmol; Perkin Elmer) and serially diluted allosteric modulators for 1 hour at room temperature with shaking. Following incubation, membranes were rapidly bound to double thick 90×120 mm glass fibre Printed Filtermat B filters (Perkin Elmer) presoaked in 0.33% (v/v) polyethylenimine and washed with cold binding buffer (20 mM HEPES pH 7.4, 100 mM NaCl) using a MicroBeta Filtermat-96 cell harvester (Perkin Elmer). ^3H-SR141716a bound membranes on Filtermats were measured with a MicroBeta counter (Perkin Elmer) after addition of MultiLex B/HS melt-on scintillator sheets (Perkin Elmer) and data values were plotted after normalizing total counts per minute to the highest and lowest values.

CB1 [12] = target: T5, CB1; test: GTP turnover assay with CB1 and Gi1; assay type: biochemical; design: Purification of human full-length CB1 with an N-terminal FLAG and C-terminal hexahistidine tags; FLAG (N); hexahistidine (C); made in house; host or cells: insect cells (baculovirus, Expression Systems) for CB1; Trichoplusia ni for Gi
[13] = compound A3 1-100 mg/kg + naloxone 0.1 mg/kg, maximal at 100 mg/kg
[14] = Condition 4 morphine + compound A3 (100 mg/kg) + low NAL (0.1 mg/kg)
[15] = Condition 1 saline + NAL (10 mg/kg)
[16] = Condition 2 morphine + NAL (10 mg/kg)
[17] = Condition 3 morphine + low NAL (0.1 mg/kg)
[18] = Condition 3 morphine + low NAL (0.1 mg/kg), listed as NAL

CNC(=O)C(Cc1ccc(C)c(OC)c1)NC(=O)CSc1ccc2ccccc2c1-c1cncc(OCc2ccccc2)c1 (racemic) [Compound A3, 2-(2-((1-(5-(benzyloxy)pyridin-3-yl)naphthalen-2-yl)thio)acetamido)-3-(3-methoxy-4-methylphenyl)-N-methylpropanamide]
enhancement of observed potency of naloxone for inhibiting agonist-induced signaling (MOR [1]): 7.6
right-shift in DAMGO potency at the MOR (MOR [2]): 3.7 fold
enhancement of low-dose naloxone inhibition of morphine-induced hyperlocomotion (male C57BL/6J mice [3]; [13]): significantly enhances low-dose naloxone inhibition of hyperlocomotion
enhancement of low-dose naloxone inhibition of morphine-induced respiratory depression (male C57BL/6J mice [3]; [13]): significantly enhances low-dose naloxone inhibition
ambulation or breathing rate, compound itself (male C57BL/6J mice [3]; compound A3 alone, relative to vehicle): does not change ambulation or breathing rate relative to vehicle administration
right-shift in DPDPE potency at δOR (δOR): caused a right-shift in DPDPE potency at SOR, though to a lesser extent
Forepaw Licking Frequency, Avg (male C57BL/6J mice [4]; [14]): 0.6
Forepaw Tremor, Avg (male C57BL/6J mice [4]; [14]): 1.6
Rearing Frequency, Avg (male C57BL/6J mice [4]; [14]): 1.6*
Straightening, Avg (male C57BL/6J mice [4]; [14]): 0.2
Wet Dog shakes, Avg (male C57BL/6J mice [4]; [14]): 1.1
magnitude of naloxone-precipitated withdrawal, combined low-dose naloxone/NAM treatment (male C57BL/6J mice [4]; compound A3 100 mg/kg s.c. + naloxone 0.1 mg/kg s.c., morphine-dependent mice): did not potentiate the magnitude of withdrawal caused by a low-dose of naloxone alone to the same levels of withdrawal symptoms as the conventional naloxone treatment
effect at κOR activation by U50,488 (κOR): No effect is observed at KOR activation by U50,488
brain penetration [5]: ~ 25 % of maximum plasma levels
GTP turnover in the absence of orthosteric ligand (MOR [6]): inhibits turnover of the receptor in the absence of orthosteric ligand; also recorded: inhibited receptor-catalyzed GTP turnover in the absence of orthosteric ligands
effect on met-enkephalin induced activation of G protein (GTP turnover) (MOR [6]): significantly inhibits met-enkephalin induced activation of Gi; also recorded: inhibited MOR/met-enkephalin induced activation of Gl
efficacy of modulation of met-enkephalin-induced GTP turnover (MOR [6]): inhibiting GTP depletion to nearly the same levels as those observed for G in the absence of any receptor catalyst; also recorded: nearly eliminating receptor induced GTP turnover
potency in GTP turnover assay (MOR [6]): single-digit μM range
potency of A3 at inhibiting relative to A1 at enhancing MOR/met-enkephalin induced activation of G (MOR [6]): > 10 fold
half-life (in vivo): 44.4 min
impact on morphine-induced antinociception, compound alone (male C57BL/6J mice [7]): no significant impact on morphine-induced antinociception
inhibition of morphine-induced antinociception in the presence of low-dose naloxone (male C57BL/6J mice [7]): significantly inhibits morphine-induced antinociception in a dose-dependent manner
median dose to potentiate low-dose naloxone antagonism of morphine antinociception (male C57BL/6J mice [7]): 1.15 (0.03-4.04) mg/kg, s.c.
morphine CPP after compound A3 and low-dose naloxone (male C57BL/6J mice [8]; compound A3 100 mg/kg sc (−30 min) + naloxone 0.1 mg/kg s.c.): morphine CPP was eliminated
EC50 (MOR [9]; EC50 of increased binding of 3H-naloxone, MOR-expressing membranes): 130 nM and 133 nM
increase in 3H-naloxone affinity (MOR [9]; in the presence of excess A3): ~ 2.6 fold and 2.6 fold
enhancement of observed on-rate of 3H-naloxone (MOR [9]; orthosteric site saturated with mitragynine pseudoindoxyl): > 10 fold
inhibition across Gi/o subtypes (MOR [10]): all Ci/o subtypes were inhibited nearly equally

CNC(=O)[C@H](Cc1ccc(C#N)cc1)NCc1csc(-c2cccc(-c3ccc4cc(N)ccc4c3)c2)n1 [Compound A1]
GTP turnover in the absence of orthosteric ligand (MOR [6]): can induce GTP turnover to similar levels observed for the full agonist DAMGO
effect on met-enkephalin induced activation of G protein (GTP turnover) (MOR [6]): enhance met-enkephalin induced activation of G protein
efficacy of modulation of met-enkephalin-induced GTP turnover (MOR [6]): more efficacious at improving GTP turnover compared to A2; also recorded: highly effective at enhancing activity, fully depleting nucleotide under these conditions
potency in GTP turnover assay (MOR [6]): low double-digit micromolar
decrease in naloxone affinity for the receptor (MOR [9]; in the presence of A1): ~ 6 fold
effect on binding of 3H-naloxone (MOR [9]; increasing amounts of compound, MOR-expressing membranes): decrease binding of ^3H-naloxone to MOR-expressing membranes

CNC(=O)c1nc2ccc(N3CC(N)C3)nn2c1-c1ccc(OCc2ccccc2)c(F)c1 [Compound A4]
effect on 3H-SR141716A antagonist binding (CB1 [11]): binds CB1 and decreases antagonist affinity though with lower potency than the known PAM, ZCZ
effect on Gi1 GTP turnover, AEA-bound CB1 (CB1 [12]; AEA): not AEA-bound CB1
effect on Gi1 GTP turnover, FUB-bound CB1 (CB1 [12]; FUB (MDMB-Fubinaca)): enhance FUB-induced Gi turnover; also recorded: specifically able to increase turnover for FUB-bound CB1

CNC(=O)[C@H](Cc1ccc(C)c(OC)c1)NC(=O)CSc1ccc2ccccc2c1-c1cncc(OCc2ccccc2)c1 [Compound B1, (S)-2-(2-((1-(5-(benzyloxy)pyridin-3-yl)naphthalen-2-yl)thio)acetamido)-3-(3-methoxy-4-methylphenyl)-N-methylpropanamide]
potency of B1 relative to B2, GTP turnover assays (MOR [6]): ≥ 100
potency of B1 relative to B2, 3H-naloxone results (MOR [9]; FIG. 5A): ≥ 100 fold

CN1CC[C@]23c4c5ccc(O)c4O[C@H]2[C@@H](O)C=C[C@H]3[C@H]1C5 [Morphine]
ambulations (male C57BL/6J mice [3]; Morphine (20 mg/kg, s.c.)): significantly increased ambulations for over 140 min
breathing rate (male C57BL/6J mice [3]; Morphine (20 mg/kg, s.c.)): decreased breathing rate through 100 min

C=CCN1CC[C@]23c4c5ccc(O)c4O[C@H]2C(=O)CC[C@@]3(O)[C@H]1C5 [Naloxone]
effect of low-dose naloxone pretreatment on morphine-induced hyperlocomotion (male C57BL/6J mice [3]; naloxone 0.1 mg/kg): ineffective in ameliorating morphine-induced hyperlocomotion
effect of low-dose naloxone pretreatment on morphine-induced respiratory depression (male C57BL/6J mice [3]; naloxone 0.1 mg/kg): observed to reduce morphine-induced respiratory depression
Forepaw Tremor, Avg (male C57BL/6J mice [4]; [15]): 26.7
Jumping Frequency, Avg (male C57BL/6J mice [4]; [15]): 2.7
Rearing Frequency, Avg (male C57BL/6J mice [4]; [15]): 23.5
Stool Consistency, Avg (male C57BL/6J mice [4]; [15]): 1.6
Straightening, Avg (male C57BL/6J mice [4]; [15]): 0.1
Teeth Chattering Frequency, Avg (male C57BL/6J mice [4]; [15]): 1
Forepaw Tremor, Avg (male C57BL/6J mice [4]; [16]): 26.7
Jumping Frequency, Avg (male C57BL/6J mice [4]; [16]): 76.9*
Rearing Frequency, Avg (male C57BL/6J mice [4]; [16]): 2.64*
Stool Consistency, Avg (male C57BL/6J mice [4]; [16]): precipitates significant diarrhea
Straightening, Avg (male C57BL/6J mice [4]; [16]): 0.55
Teeth Chattering Frequency, Avg (male C57BL/6J mice [4]; [16]): 54.2*
Stool Consistency, Avg (male C57BL/6J mice [4]; Condition 2 morphine + NAL (10 mg/kg), listed as NAL): 7.46*
Forepaw Tremor, Avg (male C57BL/6J mice [4]; [17]): 7.3
Jumping Frequency, Avg (male C57BL/6J mice [4]; [17]): caused significant withdrawal symptoms
Rearing Frequency, Avg (male C57BL/6J mice [4]; [17]): 22.2
Stool Consistency, Avg (male C57BL/6J mice [4]; [17]): precipitates significant diarrhea
Straightening, Avg (male C57BL/6J mice [4]; [17]): 3.1
Teeth Chattering Frequency, Avg (male C57BL/6J mice [4]; [17]): had no effect relative to saline alone
Jumping Frequency, Avg (male C57BL/6J mice [4]; [18]): 45.4*†
Stool Consistency, Avg (male C57BL/6J mice [4]; [18]): 9.3*
Teeth Chattering Frequency, Avg (male C57BL/6J mice [4]; [18]): 0.7+
antagonism of morphine-induced antinociception by low-dose naloxone alone (male C57BL/6J mice [7]): no significant antagonism
morphine CPP after vehicle and low-dose naloxone (male C57BL/6J mice [8]; vehicle (−30 min) + naloxone 0.1 mg/kg s.c. (−15 min)): did not prevent significant morphine CPP

Cc1ccc2c(C(C[N+](=O)[O-])c3cccs3)c(-c3ccccc3)[nH]c2c1 (stereo not drawn) [ZCZ, reference compound]
effect on Gi1 GTP turnover, AEA-bound CB1 (CB1 [12]): causes increased Gi1 turnover for both FUB and AEA, equally
effect on Gi1 GTP turnover, FUB-bound CB1 (CB1 [12]): causes increased Gi1 turnover for both FUB and AEA, equally
